# Results reported in patent US7736899B1, “Cells and method for producing proteins comprising an unconventional amino acid” (priority 1998, dated 2010).
# Assays:
# Assay type in all cases: cell-based, E. coli
# modified strain β8144 = test: Phenotypic suppression by metabolic precursors of cysteine (growth factor replacement)
# Description: (§1) The nutrient requirement for cysteine of the modified strains β8144 and β8146 is exploited in order to characterize metabolic precursors which may substitute for cysteine in the culture medium without giving rise to degradation by oxidation. […] However, the addition of none of these substances allows growth of the strain β1308 carrying a chromosomal deletion of the thyA gene of thymidylate synthase, thus excluding their contamination with traces of thymine or of thymidine.
# modified strain β8146 = test: as above
# Description: as §1
# [1] = test system: strain β5274 (thyA:Ile146); test: Phenotypic suppression by cysteine of thyA:Ile146 strain; conditions: 0.1 mM
# Description: The plasmid pTS2 thus obtained propagates the thyA:Ile146 allele in which position 146 occupied in the wild-type thyA gene by the UGC codon of cysteine is occupied by the AUA codon of isoleucine. The strain which propagates the thyA:Ile146 plasmid allele, β5274, is shown to require the nutritional supply of thymine, of thymidine or of cysteine in excess, as was the strain β5366. The phenotypic suppression of the strain β5274 by the cysteine is abolished with 0.1 mM of isoleucine, as was that of the strain β5366 with valine. Thus, it is as though the isoleucyl-tRNA synthetase is capable of forming erroneous Cys-tRNAs^Ile in the presence of an excess of cysteine, and that this erroneous formation is prevented by the presence of an excess of isoleucine.
# [2] = test system: strain β5366 (wild-type valS allele); test: Zone of growth inhibition on Petri dishes, sensitivity to noncanonical amino acids; conditions: 24 h at 30° C.; for effect on growth (zone of inhibition): central well with 0.1 ml of 100 mM amino acid solution
# [3] = test system: strain β5455 (valS T222P); test: as above; conditions: 24 h at 30° C.
# Description: (§2) The strains β5455, β8144 and β8146 are tested for their sensitivity to artificial amino acids which show steric resemblance to valine. The test is carried out on dishes containing glucose of MS mineral medium supplemented with thymidine. The cells are cultured in aerobic medium (glucose MS mineral medium, 0.3 mM thymidine) for 24 h at 30° C. and diluted to 1/250 in MS mineral medium. 0.5 ml of this cell suspension is plated out onto Petri dishes containing 25 ml of glucose MS mineral medium. A well is then hollowed out at the center of the dish and filled with 0.1 ml of an amino acid solution:
# (§3) The dishes are then incubated for 24 h at 30° C. and the possible appearance on the dishes of a zone of inhibition around the well is recorded. The diameters of the limited zones of growth inhibition on Petri dishes are measured: […]
# [4] = test system: strain β8144 (mutated valS); test: as above; conditions: 24 h at 30° C.
# Description: as §2, §3
# [5] = test system: strain β8146 (mutated valS); test: as above; conditions: 24 h at 30° C.
# Description: as §2, §3
# [6] = test system: strain β5366 (thyA:Val146); test: Growth on cysteine diffusion gradient in Petri dishes
# Description: (§4) The plasmid pTS1 thus obtained propagates the thyA:Val146 allele, in which position 146 occupied in the wild-type thyA gene by the UGC codon of cysteine is occupied by the GUA codon of valine. The plasmid pTS1 is introduced by transformation, carried out according to the method of Sambrook et al. (1989), into the E. coli K12 ΔthyA strain, β1308 (Lemeignan et al., 1993), in which the chromosomal thymidylate synthase gene, thyA, is deleted. The transformed strain carrying the thyA:Val146 plasmid allele, β5366, is shown to be incapable of growing without thymine or thymidine being added to the culture medium, as is the strain β1308 from which it derives. […] Thus, it is as though the cysteine can infiltrate into the valyl-tRNA synthetase active site to form erroneous Cys-tRNAs^Val capable of correcting the substitution of the cysteine in the thymidylate synthase active site, with valine. The excess of valine would prevent the formation of these erroneous Cys-tRNAs^Val.
# [7] = test system: twelve clones derived from strain β5366; test: Growth factor test of clones from serial culture on plates with nutrient factors; conditions: glucose MS mineral medium plates
# Description: The strain β5366 carrying the thyA:Val146 missense allele on the plasmid pTS1 is cultured in glucose MS mineral medium (2 g/l, Richaud et al., 1993) supplemented with 0.3 mM of thymidine, for 24 h at 30° C. in aerobiosis. The cells are then washed twice with deoxygenated MS mineral medium. A deoxygenated nutrient medium containing 10 ml of glucose MS mineral medium supplemented with 1.5 mM of cysteine is inoculated at 1/100 using the washed cells. The cells are then cultured in anaerobiosis for 24 h at 30° C., and a fresh tube containing 10 ml of deoxygenated cysteine glucose MS mineral medium is inoculated with a 1/100 dilution of the previous culture in the stationary phase. This procedure is repeated 26 times. At the end of this serial propagation, 12 clones from the liquid culture are isolated on plates containing thymidine (0.3 mM) glucose (2 g/l) MS mineral medium, in aerobiosis, and stored in suspension in the same liquid medium at −80° C. The twelve clones are tested on plates containing glucose MS mineral medium supplemented with nutrient factors. All these clones are shown to require thymine or thymidine as a growth factor, unless cysteine is present in the culture medium, at a concentration of at least 1.5 mM.
# strain β1308 (ΔthyA) = test: Growth on cysteine diffusion gradient in Petri dishes; conditions: 30° C., glucose MS mineral medium, central well 0.1 ml of 400 mM L-cysteine
# Description: as §4
# [8] = central well with 0.1 ml of 100 mM amino acid solution
# [9] = central well with 0.1 ml of 50 mM amino acid solution
molecule,measurement,setting,value
NC(=O)SC[C@H](N)C(=O)O [S-carbamyl-L-cysteine],replacement of cysteine as growth factor instead of thymidine or thymine,modified strain β8144; 3 mM in culture medium,capable of replacing cysteine as a growth factor
same,replacement of cysteine as growth factor instead of thymidine or thymine,modified strain β8146; 3 mM in culture medium,capable of replacing cysteine as a growth factor
CC[C@H](C)[C@H](N)C(=O)O [isoleucine],effect on phenotypic suppression by cysteine,[1],abolished
CCC[C@H](N)C(=O)O [L-2-aminovalerate],effect on growth (zone of inhibition),[2],no effect
same,diameter of zone of growth inhibition,[3]; [8],2.1 cm
same,diameter of zone of growth inhibition,[4]; [8],1.5 cm
same,diameter of zone of growth inhibition,[5]; [8],6.7 cm
CC(C)[C@H](N)C(=O)O [valine],effect on growth on a cysteine gradient,[6]; 0.1 mM added to the medium of the Petri dishes,abolishes the growth
CC(S)[C@H](N)C(=O)O (stereo partly drawn) [L-3-thiol-2-aminobutyrate],diameter of zone of growth inhibition,[2]; [9],2.0 cm
same,diameter of zone of growth inhibition,[3]; [9],4.6 cm
same,diameter of zone of growth inhibition,[4]; [9],4.0 cm
same,diameter of zone of growth inhibition,[5]; [9],4.0 cm
L-2-aminobutyrate,effect on growth (zone of inhibition),[2],no effect
same,diameter of zone of growth inhibition,[3]; [8],5.2 cm
same,diameter of zone of growth inhibition,[4]; [8],5.7 cm
same,diameter of zone of growth inhibition,[5]; [8],6.7 cm
N[C@@H](CS)C(=O)O [L-cysteine],cysteine concentration that replaces thymine or thymidine as growth factor,[7],at least 1.5 mM
same,growth on cysteine diffusion gradient,"[6]; 30° C., glucose MS mineral medium, central well 0.1 ml of 400 mM L-cysteine",marginal growth
same,growth on cysteine diffusion gradient,strain β1308 (ΔthyA),no detectable growth
"NC[C@H](N)C(=O)O [L-2,3-diaminopropionate]",effect on growth (zone of inhibition),[2],no effect
same,diameter of zone of growth inhibition,[3]; [8],2.3 cm
same,diameter of zone of growth inhibition,[4]; [8],2.7 cm
same,diameter of zone of growth inhibition,[5]; [8],1.9 cm
O=C(O)[C@@H]1CSCN1 [L-thiazolidine-4-carboxylic acid],replacement of cysteine as growth factor instead of thymidine or thymine,modified strain β8144; 2 mM in culture medium,capable of replacing cysteine as a growth factor
same,replacement of cysteine as growth factor instead of thymidine or thymine,modified strain β8146; 2 mM in culture medium,capable of replacing cysteine as a growth factor
CSC[C@H](N)C(=O)O [S-methyl-L-cysteine],replacement of cysteine as growth factor instead of thymidine or thymine,modified strain β8144; 3 mM in culture medium,capable of replacing cysteine as a growth factor
same,replacement of cysteine as growth factor instead of thymidine or thymine,modified strain β8146; 3 mM in culture medium,capable of replacing cysteine as a growth factor
